{"source": "patent US11422091B2", "about": "“Turn-on near infrared fluorescent probes for imaging lysosomal ROS in live cells at subcellular resolution” (University of Massachusetts, priority 2015, dated 2022)", "key": {"[1]": {"system": "Bovine Aortic Endothelial Cells (BAEC)", "experiment": "Co-localization with Mito Tracker Green and Lyso Tracker Blue, confocal imaging in BAEC", "assay_type": "cell-based", "conditions": "BAEC preloaded with TBHP (100 μM) 30 min, RTMI (10 μM) 30 min", "protocol": "Confocal fluorescence imaging studies were performed with a Zeiss LSM 710 laser scanning microscope."}, "[2]": {"experiment": "Photo stability of the sensor", "assay_type": "physicochemical"}, "BAEC cells": {"system": "BAEC cells", "experiment": "Detection of ROS in live BAEC cells by fluorescence microscopy", "assay_type": "cell-based, bovine", "conditions": "HO., H2O2, KO2, TBO, TBHP, peroxynitrite or ox-LDL, RTMI 10 μM", "protocol": "In one embodiment, the RTMI may be used to analyze ROS species within living systems. The RTMI sensor solution was applied to live cells and analyzed under a fluorescence microscope. Each of the various ROS (HO., H2O2, KO2, TBO, TBHP, peroxynitrite) or ROS inducer (ox-LDL) that were present combined with the RTMI sensor were incubated with BAEC cells.\nThe sensor RTMI was dissolved in DMF at a concentration of 10 mM. 1 μL of the DMF solution was added to cell medium without fetal bovine serum. Cell culture medium was removed from the cells in the culture dish and replaced with the fresh medium containing the sensor.\nOxidized low density lipoprotein (Ox-LDL, a stimulation factor for ROS production in cells) was dissolved in water solution and the final concentration in cell media was 20 μg/mL.\nCommercial H2O2 (30% wt, density of 1.1 g/ml, MW 34.02 g/mol) was diluted with deionized water to make a fresh solution of 100 mM. 1 μL of the fresh solution was added to cell media to generate a final concentration of 100 μM.\nSIN1 (a peroxyitrite donor) was dissolved in deionized water to the concentration of 10 mM; 10 μL of this solution added to cell media to generate a final concentration of 100 μM.\nFe^2+ was freshly made from ferrous ammonium sulfate (MW 392.15 g/mol) dissolved in 0.1 M HCl (DI water solution) to generate a fresh solution of 100 mM. […]"}, "[3]": {"experiment": "Fluorescent responses of RTMI to various ROS in PBS", "protocol": "Fresh solutions of L-ascorbic acid (50 mM), hydrogen peroxide (100 mM), tert-butyl hydrogen peroxide (TBHP, 100 mM), 3-morpholinosydnonimine (SIN-1, 5 mM), glutathione reduced form (GSH, 10 mM) and glutathione oxidized form (GSSG, 10 mM) were prepared with distilled water. […]\nThe hydroxyl and butoxyl radicals were generated in situ by reacting hydrogen peroxide or TBHP with Fe^2+. Fresh 10 mM Fe^2+ was made in 0.1 M HCl solution using ferrous ammonium sulfate [Fe(NH4)2(SO4)2.6H2O]. A 10 μM RTMI solution, in PBS, containing 10 μM Fe^2+ was made and either hydrogen peroxide or TBHP was added to this solution to generate a 100 μM concentration.\nFluorescence spectra were recorded on a Perkin-Elmer LS55 luminescence spectrometer at 293 K. The excitation wavelengths and filters used were indicated in the figures. The pH measurements were carried out on a Corning pH meter equipped with a Sigma-Adrich micro combination electrode calibrated with standard buffer solution.\nFluorescent responses of RTMI (100 μM) to various ROS were monitored in PBS, containing 1% methanol. Various reactive oxygen species were added to the 100 μM RTMI solutions, at a 5:1 molar ratio to RTMI, and the fluorescence intensity was recorded after 5 min of incubation at 25° C. Superoxide (O2.^−) was added as solid KO2. Stock solution solutions of hydrogen peroxide, tert-butyl hydrogen peroxide (TBHP), hypochlorite, 3-morpholinosydnonimine (SIN-1), glutathione (GSH) and 1,4-hydroquinone were made and then added to the RTMI solution, to generate a 500 μM final concentration. 3-(aminopropyl)-1-hydroxy-3-isopropyl-2-oxo-1-triazene (NOC-5, 1 mM) was made as a 10 mM sodium hydroxide solution and then added to the RTMI solution, to generate a 500 μM final concentration. The hydroxyl and butoxyl radicals were generated in situ by reacting hydrogen peroxide or TBHP with Fe^2+. A 100 μM RTMI solution, in PBS, containing 500 μM Fe^2 was made and either hydrogen peroxide or TBHP was added to this solution to generate a 500 μM concentration."}, "[4]": {"conditions": "RTMI 100 μM in PBS, 1% methanol, 500 μM, 5 min, 25° C."}}}
{"molecule": "CCCN1c2ccccc2C(C)(C)C1/C=C/C1=C2Oc3cc(O)ccc3C=C2CCC1", "note": "(stereo not drawn) [RTMI]", "values": [{"measurement": "subcellular location of ROS detected by the sensor", "setting": "[1]", "value": "in lysosomes"}, {"measurement": "photo stability", "setting": "[2]", "value": "very good photo stability"}, {"measurement": "fluorescence emission in the near IR region of cells treated with ROS or ROS inducers, compared to the control", "setting": "BAEC cells", "value": "strongly fluorescence emission signals"}, {"measurement": "fluorescence response to TBHP", "setting": "[3]; [4]", "value": "turn-on"}, {"measurement": "fluorescence response to hydrogen peroxide", "setting": "[3]; [4]", "value": "turn-on"}, {"measurement": "fluorescence response to peroxynitrite (generated by SIH 1)", "setting": "[3]; [4]", "value": "turn-on"}, {"measurement": "fluorescence response to superoxide (O2.-)", "setting": "[3]; RTMI 100 μM in PBS, 1% methanol, solid KO2, 5:1 molar ratio, 5 min, 25° C.", "value": "turn-on"}, {"measurement": "fluorescence response to butoxyl radical (TBO)", "setting": "[3]; RTMI 100 μM in PBS, generated in situ from TBHP 500 μM and Fe2+ 500 μM", "value": "turn-on"}, {"measurement": "fluorescence response to hydroxyl radical", "setting": "[3]; RTMI 100 μM in PBS, generated in situ from hydrogen peroxide 500 μM and Fe2+ 500 μM", "value": "turn-on"}, {"measurement": "fluorescence response to Fe2+", "setting": "[3]; beyond baseline fluorescence", "value": "does not respond"}, {"measurement": "fluorescence response to GSH", "setting": "[3]; beyond baseline fluorescence", "value": "does not respond"}, {"measurement": "fluorescence response to GSSG", "setting": "[3]; beyond baseline fluorescence", "value": "does not respond"}, {"measurement": "fluorescence response to nitrite", "setting": "[3]; beyond baseline fluorescence", "value": "does not respond"}, {"measurement": "fluorescence response to nitric oxide radical", "setting": "[3]; beyond baseline fluorescence, NOC-5", "value": "does not respond"}, {"measurement": "fluorescence peak upon reacting with ROS", "setting": "[3]; in physiological buffer, near IR region", "value": 705, "unit": "nm"}]}
